Entries after “also recorded” stand apart in the source; their conditions may differ.
How the values were obtained:
[1] = system: CT26 colon cancer cells; assay: Internalization of INS-FITC in CT26 cells, flow cytometry and fluorescent imaging; format: cell-based, mouse
Experimental: CT26 colon cancer cells were seeded in 24-well plates at 100.000 cells/well/mL. After 24 hours, cells were treated with INS-FITC at 10 μM or 30 μM concentration either alone or in combination with the conjugate 4-hydroxybutyl L-tryptophanate in three different molar ratios (1:1, 1:3 or 3:1). Treatments were co-incubated with the CT26 cells for 1 h, 4 h or 24 h. Before observation, cells were washed several times with PBS, and with heparin, to ensure removal of compounds that might remain softly bound to cell membrane and not internalized. Then the washed cells were detached from the wells using trypsin, centrifuged and re-suspended in PBS for analysis by flow cytometry. In flow the cells were gated as singlets (single cell events) and then the fluorescence was recorded for each event in the specific FL channel were the compound has its emission max (INS-FITC: FL1 (525+/−40).

[2] = cited from earlier work
[3] = system: pig intestine (gut epithelium); assay: Binding of conjugate system to the pig intestine (gut epithelium) ex vivo
Experimental: Biological functionality and compliance was tested utilizing intestinal tissue from pigs. A cross section of the pig intestine (1 cm^2)was cleaned and subjected to the conjugate (1 mg/ml; 3.65 mM). After incubation (1 hour) of said tissue with the conjugate system, 4-hydroxybutyl L-tryptophanate, the tissue was washed and excess mucous layer removed by gentle physical exfoliation (scrapping via a spatula).

[4] = system: CT-26 cells; assay: Ethidium-homodimer internalization in CT-26 cells, fluorescent confocal microscopy; format: cell-based, mouse
Experimental: CT-26 cells in culture were co-incubated with the conjugate system, 4-hydroxybutyl L-tryptophanate, (1 mg/ml) and Etidium-homodimer (2 μl/ml) for 1 hour and observed under fluorescent confocal microscope. Working ratio was set as 1:3 and two reaction sets comprising of higher (80 μl) loading and standard loading (40 μl ) were performed. Emission bandwidth was set as 490-550nm and 590-680 nm.

[5] = system: CT26 cells; assay: Uptake of Oxaliplatin by CT26 cells measured by ICP-MS; format: cell-based, mouse; conditions: for enhancement of OxPt internalization versus OxPt alone: 10 μM OxPt, 24 hours
Experimental: CT26 cells were seeded in 24-well plate (100.000 cells/mL/well) exposed to Oxaliplatin (Ox-Pt, 10 μM and 30 μM) with/and without conjugate the molar ratio of 1:1, 1:3 and 3:1 respectively. After 1, 4, 24 hours of incubation, media was discarded and the cells were washed with PBS twice, once with heparin (to remove anything associated externally with the cell membrane) and once more with PBS. Then the cells were detached from the wells using trypsin and cells were counted. Finally, each sample was diluted in HCl acid and further diluted in 2% HCl with (0.5 ppb Ir), then Pt content was measured in the ICP-MS.

[6] = system: CT-26 cells; assay: Cellular internalization of insulin (Novorapid) in CT-26 cells, MALDI-TOF; format: cell-based, mouse; conditions: commercial insulin (20 μl) + conjugate (20 μl), 4 hours
Experimental: MALDI-TOF is a standard technique for analysis of molecules based upon their mass/charge (m/z) ratio. In this study, the inventors exposed CT-26 cells with commercial insulin (20 μl) and conjugate system, 4-hydroxybutyl L-tryptophanate (20 μl). After 4 hours, the cells were sonicated (ruptured) and cell-debris removed; Resulting supernatant was subjected to MALDI analysis.

[7] = system: CT-26 cells; assay: Internalization of Paclitaxel (PTX) in CT-26 cells measured by flow cytometry; format: cell-based, mouse
Experimental: There is a remarkable increment in the percentage of cells containing PTX when co-administered with the conjugate, especially after 24 hours incubation. (c) depicts the amount of PTX internalization expressed as mean fluorescence intensity (MFI).

[8] = system: CT26 cells; assay: Internalization of resiquimod (R848) in CT26 cells detected by HPLC; format: cell-based, mouse
Experimental: CT26 cells were seeded in 24-well plates (10^5 cells/well). After 24 hours the cells were treated with either 100 or 300 μM concentration of resiquimod (R848) alone or in combination with the 4-hydroxybutyl L-tryptophanate conjugate. After 4 and 24 hours incubation cells were washed with cold PBS and with heparin solution (0.1 mg/mL heparin in PBS), and detached from the wells using trypsin. Then the cells were diluted in acetonitrile with 0.1% TFA and the amount of R848 was detected by HPLC.

[9] = In vivo insulin delivery and bioavailability experiment, oral enteric-coated capsule; parameters: species or system Sprague-Dawley rats
Experimental: […] Insulin dosage was estimated to be ˜120 I.U. The capsule was mechanically guided across the duodenum and rat-tail plasma samples were collected for a period of 3 hours (at specified periodic intervals). Blood glucose measurement was made with Glucometer and plasma insulin concentration via ELISA.

[10] = system: mouse CD-4 (+) T-cells; assay: Fluorescent tagging of T-cells, confocal Z-stack imaging; format: cell-based; conditions: 100 μL conjugate (1 mg/ml) added to 500 μL cell suspension, 24 hours
Experimental: 100 μL 4-hydroxybutyl L-tryptophanate conjugate (1 mg/ml) was added to the cell suspension solution (500 μL; 1×10^5 cells/mL) and incubated for 24 hours. Cells were washed with PBS buffer and analyzed via Z-stack imaging was to confirm internalization of the 4-hydroxybutyl L-tryptophanate conjugate. Cell imaging was done for 0, 24, 48 and 72 hours—though 24 hours was found the optimum time frame.

INS-FITC: fluorescently labelled insulin, insulin conjugated with FITC [reference compound]
internalization in cells (share of cells) ([1]; INS-FITC alone): 100%

N[C@@H](Cc1c[nH]c2ccccc12)C(=O)O [tryptophan]
pKa of deprotonated carboxylic acid (—COO−) [2]: 2.38
pKa of protonated amino group (—NH3+) [2]: 9.39

N[C@@H](Cc1c[nH]c2ccccc12)C(=O)OCCCCO [4-hydroxybutyl L-tryptophanate]
fluorescence signal on tissue (tissue binding and transmembrane penetration) ([3]; conjugate 1 mg/ml (3.65 mM), 1 hour incubation, tissue washed, excess mucous layer removed): clear fluorescence signal
normalized fluorescence intensities on tissue versus controls on glass ([3]; conjugate 1 mg/ml, 1 hour): higher than controls incubated on a glass sample
penetration across mucosal layer and binding to gut epithelium despite repeated washes ([3]; pig intestine with mucus): deeply penetrate across mucosal layer on intestinal epithelium and bind to the tissue
internalization of Ethidium-homodimer (EtDi) ([4]; EtDi 2 μl/ml co-administered with conjugate 1 mg/ml, 1 hour): confirmed; also recorded: got internalized into the cells
increase of EtDi fluorescence (mean pixel intensity of confocal images) compared with EtDi alone ([4]; EtDi combined with the conjugate): 8.67 fold
condition of CT-26 cells and membranes after co-administration ([4]; conjugate 1 mg/ml + EtDi 2 μl/ml, 1 hour): healthy with fully intact membranes
Z-stack analysis at single cell level ([4]; conjugate + EtDi): internalization of both the EtDi and conjugate
enhancement of OxPt internalization versus OxPt alone ([5]; conjugate:OxPt 10:10 molar ratio): 37.6%
enhancement of OxPt internalization versus OxPt alone ([5]; conjugate:OxPt 30:10 molar ratio): 23.5%
internalization percentage of OxPt increased to ([5]; 30 μM OxPt, 10:30 ratio (Conj.:OxPt)): 451%
Pt signal in CT26 cells compared to OxPt alone ([5]; combination of OxPt and the conjugate, overall): increased amount of Pt signal
insulin signal in MALDI-TOF of cell supernatant [6]: clearly distinct
fluorescence under fluorescent microscope ([1]; conjugate alone, post 24-hours incubation): No observable fluorescence
percentage increase of INS-FITC internalization (MFI) compared to free insulin at the same concentration ([1]; conjugate to insulin 30:10 μM, 24 hours): around 72.3%
percentage increase of INS-FITC internalization (MFI) ([1]; conjugate:INS-FITC 10:10 μM, 4 hours): 20.5%
percentage increase of INS-FITC internalization (MFI) ([1]; insulin to conjugate 30:10 μM, constant from 4 to 24 hours): 11.4%
% cells uptake (1 h), CT-26 cells with PTX internalized ([7]; Conjugate 10 μM + PTX 10 μM, 1 h): 4.7%
% cells uptake (4 h), CT-26 cells with PTX internalized ([7]; Conjugate 10 μM + PTX 10 μM, 4 h): 6.2%
% cells with uptake (24 h), CT-26 cells with PTX internalized ([7]; Conjugate 10 μM + PTX 10 μM): 22.1%
% cells uptake (1 h), CT-26 cells with PTX internalized ([7]; Conjugate 10 μM + PTX 30 μM, 1 h): 5.0%
% cells uptake (4 h), CT-26 cells with PTX internalized ([7]; Conjugate 10 μM + PTX 30 μM, 4 h): 6.9%
% cells with uptake (24 h), CT-26 cells with PTX internalized ([7]; Conjugate 10 μM + PTX 30 μM): 29.2%
% cells uptake (1 h), CT-26 cells with PTX internalized ([7]; Conjugate 30 μM + PTX 10 μM, 1 h): 11.2%
% cells uptake (4 h), CT-26 cells with PTX internalized ([7]; Conjugate 30 μM + PTX 10 μM, 4 h): 17.6%
% cells with uptake (24 h), CT-26 cells with PTX internalized ([7]; Conjugate 30 μM + PTX 10 μM, listed as Conjugate): 49.8%
% cells with uptake (24 h), CT-26 cells with PTX internalized ([7]; Conjugate 30 μM + PTX 10 μM, listed as conjugate): up to 50%
Percentage increase in PTX signal (MFI) compared to PTX alone; head: % cells with uptake (24 h) ([7]; PTX 10 μM, Conjugate:PTX molar ratio 1:1 (10:10)): 22.3%
Percentage increase in PTX signal (MFI) compared to PTX alone; head: % cells uptake (1 h) ([7]; PTX 10 μM, Conjugate:PTX molar ratio 1:1, 1 h): 6.8%
Percentage increase in PTX signal (MFI) compared to PTX alone; head: % cells uptake (4 h) ([7]; PTX 10 μM, Conjugate:PTX molar ratio 1:1, 4 h): 12.4%
Percentage increase in PTX signal (MFI) compared to PTX alone; head: % cells uptake (1 h) ([7]; PTX 10 μM, Conjugate:PTX molar ratio 3:1 (30:10), 1 h): 20.6%
Percentage increase in PTX signal (MFI) compared to PTX alone; head: % cells uptake (1 h) ([7]; PTX 10 μM, Conjugate:PTX molar ratio 3:1 (30:10), 1 h, listed as Conjugate): 7.8%
Percentage increase in PTX signal (MFI) compared to PTX alone; head: % cells uptake (4 h) ([7]; PTX 10 μM, Conjugate:PTX molar ratio 3:1 (30:10), 4 h): 32.4%
Percentage increase in PTX signal (MFI) compared to PTX alone; head: % cells uptake (4 h) ([7]; PTX 10 μM, Conjugate:PTX molar ratio 3:1 (30:10), 4 h, listed as Conjugate): 11.4%
Percentage increase in PTX signal (MFI) compared to PTX alone; head: % cells with uptake (24 h) ([7]; PTX 10 μM, Conjugate:PTX molar ratio 3:1 (30:10)): 56.2%
Percentage increase in PTX signal (MFI) compared to PTX alone; head: % cells with uptake (24 h) ([7]; PTX 10 μM, Conjugate:PTX molar ratio 3:1 (30:10), listed as Conjugate): 27.1%
Percentage increase in PTX signal (MFI) compared to PTX alone; head: % cells uptake (1 h) ([7]; PTX 30 μM, Conjugate:PTX molar ratio 1:3 (10:30), 1 h): 20.6%
Percentage increase in PTX signal (MFI) compared to PTX alone; head: % cells uptake (4 h) ([7]; PTX 30 μM, Conjugate:PTX molar ratio 1:3 (10:30), 4 h): 32.4%
Percentage increase in PTX signal (MFI) compared to PTX alone; head: % cells with uptake (24 h) ([7]; PTX 30 μM, Conjugate:PTX molar ratio 1:3 (10:30)): 27.1%
Percentage increase in PTX signal (MFI) compared to PTX alone; head: % cells with uptake (24 h) ([7]; PTX 30 μM, Conjugate:PTX molar ratio 1:3 (10:30), listed as Conjugate): 56.2%
Fold increase internalization of resiquimod (R848) compared to R848 alone ([8]; conjugate (100 μM) + R848 (100 μM), 4 hours, listed as 4-hydroxybutyl L-tryptophanate conjugate): 4.9 fold
Fold increase internalization of resiquimod (R848) compared to R848 alone ([8]; conjugate (100 μM) + R848 (100 μM), 24 hours): 0.9 fold
Fold increase internalization of resiquimod (R848) compared to R848 alone ([8]; conjugate (100 μM) + R848 (300 μM), 4 hours): 1.4 fold
Fold increase internalization of resiquimod (R848) compared to R848 alone ([8]; conjugate (100 μM) + R848 (300 μM), 24 hours): 1.8 fold
Fold increase internalization of resiquimod (R848) compared to R848 alone ([8]; conjugate (300 μM) + R848 (100 μM), 4 hours): 1.5 fold
Fold increase internalization of resiquimod (R848) compared to R848 alone ([8]; conjugate (300 μM) + R848 (100 μM), 24 hours): 1.1 fold
drop in blood sugar ([9]; insulin 1.1 mg (~80 I.U) + conjugate 8 mg, within twenty minutes, n=3): ~15%
drop in blood sugar ([9]; insulin 1.5 mg (~120 I.U.) + conjugate 0.5 mg, within the first hour, n=2): ~20%
cellular internalization of the conjugate (Z-stack imaging, fluorescence 488 nm) [10]: confirmed cellular internalization
